Measured values published in ChEMBL document CHEMBL1201862, “PubChem BioAssay data set” (2004).
Activity calls are given as the source filed them.

What was measured:
[1] = molecular target: Botulinum neurotoxin type A (Clostridium botulinum (strain Hall / ATCC 3502 / NCTC 13319 / Type A), UniProt P0DPI1); test: High-throughput multiplex microsphere dose response for inhibitors of toxin protease, specifically Botulinum neurotoxin light chain A protease, compounds from Cherry Pick 02.; type: functional; conditions: read-out: EC50_MICROM
[2] = molecular target: Botulinum neurotoxin type F (Clostridium botulinum, UniProt P30996); test: High-throughput multiplex microsphere dose response for inhibitors of toxin protease, specifically Botulinum neurotoxin light chain F protease, compounds from Cherry Pick 02.; type: functional; conditions: read-out: EC50_MICROM
[3] = molecular target: T1, Apoptotic protease-activating factor 1 (Homo sapiens, UniProt O14727); test: SAR analysis of small molecule inhibitors of Apaf-1 in a Fluorescent assay.; type: functional; conditions: read-out: IC50_Mean
T1 sequence (O14727 whole entry): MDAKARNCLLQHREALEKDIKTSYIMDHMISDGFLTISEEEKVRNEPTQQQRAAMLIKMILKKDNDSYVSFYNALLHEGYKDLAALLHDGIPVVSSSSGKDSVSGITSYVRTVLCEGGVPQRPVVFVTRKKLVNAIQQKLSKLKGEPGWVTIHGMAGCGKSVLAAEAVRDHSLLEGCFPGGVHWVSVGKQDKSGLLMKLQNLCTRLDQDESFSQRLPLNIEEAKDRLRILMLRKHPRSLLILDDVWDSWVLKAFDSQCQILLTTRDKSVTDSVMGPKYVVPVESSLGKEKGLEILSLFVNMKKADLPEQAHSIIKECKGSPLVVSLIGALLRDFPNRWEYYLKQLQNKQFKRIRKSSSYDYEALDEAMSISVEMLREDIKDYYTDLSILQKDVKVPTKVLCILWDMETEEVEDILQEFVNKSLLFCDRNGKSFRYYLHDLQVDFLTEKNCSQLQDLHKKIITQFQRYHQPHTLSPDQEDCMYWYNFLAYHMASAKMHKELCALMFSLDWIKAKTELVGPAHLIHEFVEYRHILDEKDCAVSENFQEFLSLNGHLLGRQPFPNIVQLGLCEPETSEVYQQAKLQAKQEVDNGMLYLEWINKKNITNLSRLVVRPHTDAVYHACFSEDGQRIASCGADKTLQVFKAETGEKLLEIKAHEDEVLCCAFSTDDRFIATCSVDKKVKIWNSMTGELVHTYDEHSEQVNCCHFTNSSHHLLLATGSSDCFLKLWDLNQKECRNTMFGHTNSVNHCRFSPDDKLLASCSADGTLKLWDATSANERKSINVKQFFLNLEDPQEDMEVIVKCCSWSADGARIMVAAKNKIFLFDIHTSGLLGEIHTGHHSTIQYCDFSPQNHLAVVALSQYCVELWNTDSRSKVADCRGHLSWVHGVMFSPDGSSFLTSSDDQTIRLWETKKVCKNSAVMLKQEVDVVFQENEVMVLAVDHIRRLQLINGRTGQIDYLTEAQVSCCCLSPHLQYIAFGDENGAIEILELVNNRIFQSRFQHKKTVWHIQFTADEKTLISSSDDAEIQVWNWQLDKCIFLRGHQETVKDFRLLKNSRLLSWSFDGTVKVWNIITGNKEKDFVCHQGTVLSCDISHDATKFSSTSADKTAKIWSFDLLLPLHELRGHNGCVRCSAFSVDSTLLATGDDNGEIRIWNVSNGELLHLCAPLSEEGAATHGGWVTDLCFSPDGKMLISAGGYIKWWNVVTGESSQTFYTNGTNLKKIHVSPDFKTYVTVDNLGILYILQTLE

[4] = molecular target: ALK tyrosine kinase receptor (Homo sapiens, UniProt Q9UM73); type: functional;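 further: ALK tested as one member of a kinase panel screen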
Chain of ALK tyrosine kinase receptor (Q9UM73 whole entry): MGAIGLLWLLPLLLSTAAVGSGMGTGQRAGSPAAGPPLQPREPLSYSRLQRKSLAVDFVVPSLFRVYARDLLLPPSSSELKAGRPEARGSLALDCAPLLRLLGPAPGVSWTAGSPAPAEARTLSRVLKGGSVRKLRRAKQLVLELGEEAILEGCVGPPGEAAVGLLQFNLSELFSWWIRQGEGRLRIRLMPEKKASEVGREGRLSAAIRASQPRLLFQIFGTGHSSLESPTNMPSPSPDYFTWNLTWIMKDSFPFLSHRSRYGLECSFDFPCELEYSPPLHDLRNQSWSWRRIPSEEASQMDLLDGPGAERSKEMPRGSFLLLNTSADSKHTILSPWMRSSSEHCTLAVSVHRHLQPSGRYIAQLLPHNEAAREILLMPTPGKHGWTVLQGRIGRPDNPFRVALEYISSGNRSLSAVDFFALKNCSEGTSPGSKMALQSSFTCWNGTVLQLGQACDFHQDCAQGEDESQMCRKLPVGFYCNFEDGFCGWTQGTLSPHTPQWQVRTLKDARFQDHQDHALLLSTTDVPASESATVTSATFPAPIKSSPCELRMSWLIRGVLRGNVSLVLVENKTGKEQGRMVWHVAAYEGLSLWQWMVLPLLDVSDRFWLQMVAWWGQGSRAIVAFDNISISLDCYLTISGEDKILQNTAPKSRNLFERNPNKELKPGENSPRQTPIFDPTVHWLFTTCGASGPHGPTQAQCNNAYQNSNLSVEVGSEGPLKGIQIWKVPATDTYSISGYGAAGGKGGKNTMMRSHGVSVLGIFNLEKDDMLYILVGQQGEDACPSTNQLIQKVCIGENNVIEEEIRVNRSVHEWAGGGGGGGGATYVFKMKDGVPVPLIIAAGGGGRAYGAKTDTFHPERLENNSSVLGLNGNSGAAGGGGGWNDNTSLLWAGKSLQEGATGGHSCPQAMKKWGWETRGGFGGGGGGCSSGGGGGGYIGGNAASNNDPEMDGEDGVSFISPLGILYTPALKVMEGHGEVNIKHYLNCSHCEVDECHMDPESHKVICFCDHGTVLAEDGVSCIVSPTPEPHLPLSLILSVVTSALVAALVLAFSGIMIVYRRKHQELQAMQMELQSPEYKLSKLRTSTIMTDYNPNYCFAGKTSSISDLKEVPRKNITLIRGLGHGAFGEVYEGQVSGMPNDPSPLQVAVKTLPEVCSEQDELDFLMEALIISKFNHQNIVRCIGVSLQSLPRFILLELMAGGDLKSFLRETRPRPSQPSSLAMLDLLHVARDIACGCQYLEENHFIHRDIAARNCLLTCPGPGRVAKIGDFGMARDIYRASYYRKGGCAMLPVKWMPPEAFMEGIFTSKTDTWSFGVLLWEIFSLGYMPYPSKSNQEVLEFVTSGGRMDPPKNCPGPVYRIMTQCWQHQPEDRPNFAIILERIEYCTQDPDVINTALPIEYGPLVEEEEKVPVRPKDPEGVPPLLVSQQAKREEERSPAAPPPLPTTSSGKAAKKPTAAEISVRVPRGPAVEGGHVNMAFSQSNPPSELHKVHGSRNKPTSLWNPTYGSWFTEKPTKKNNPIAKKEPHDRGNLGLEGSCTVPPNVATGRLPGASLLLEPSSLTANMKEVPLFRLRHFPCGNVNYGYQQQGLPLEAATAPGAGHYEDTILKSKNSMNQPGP

[5] = molecular target: Serine/threonine-protein kinase D3 (Homo sapiens, UniProt O94806); type: functional;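 further: determined within a kinase panel screen, with PRKCN as the panel member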
[6] = molecular target: Tyrosine-protein kinase Lck (Homo sapiens, UniProt P06239); type: functional;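 further: lck was assayed as one member of a kinase panel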
[7] = molecular target: Death-associated protein kinase 3 (Homo sapiens, UniProt O43293); type: functional;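 further: measured as one member of a kinome-wide profiling panel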
[8] = molecular target: Activin receptor type-1 (Homo sapiens, UniProt Q04771); test: Navigating the Kinome. Panel member name: ACVR1; type: functional
Chain of Activin receptor type-1 (Q04771 whole entry): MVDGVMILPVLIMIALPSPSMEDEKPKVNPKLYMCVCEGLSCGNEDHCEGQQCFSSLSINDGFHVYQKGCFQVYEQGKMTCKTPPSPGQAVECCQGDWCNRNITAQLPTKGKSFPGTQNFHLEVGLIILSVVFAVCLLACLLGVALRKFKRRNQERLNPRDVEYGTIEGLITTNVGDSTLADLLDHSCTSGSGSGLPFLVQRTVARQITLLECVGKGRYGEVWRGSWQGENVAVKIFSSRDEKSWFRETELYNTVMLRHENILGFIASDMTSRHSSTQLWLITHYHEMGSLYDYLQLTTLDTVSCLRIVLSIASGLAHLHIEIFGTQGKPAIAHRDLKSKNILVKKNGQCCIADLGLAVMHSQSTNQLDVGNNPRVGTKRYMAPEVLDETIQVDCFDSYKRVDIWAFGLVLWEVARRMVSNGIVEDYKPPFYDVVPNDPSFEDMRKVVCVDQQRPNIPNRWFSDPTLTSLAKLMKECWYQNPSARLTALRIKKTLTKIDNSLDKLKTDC

[9] = molecular target: Mitogen-activated protein kinase 8 (Homo sapiens, UniProt P45983); type: functional;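 further: value comes from one member of a kinome-wide kinase profiling panel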
Chain of Mitogen-activated protein kinase 8 (P45983 whole entry): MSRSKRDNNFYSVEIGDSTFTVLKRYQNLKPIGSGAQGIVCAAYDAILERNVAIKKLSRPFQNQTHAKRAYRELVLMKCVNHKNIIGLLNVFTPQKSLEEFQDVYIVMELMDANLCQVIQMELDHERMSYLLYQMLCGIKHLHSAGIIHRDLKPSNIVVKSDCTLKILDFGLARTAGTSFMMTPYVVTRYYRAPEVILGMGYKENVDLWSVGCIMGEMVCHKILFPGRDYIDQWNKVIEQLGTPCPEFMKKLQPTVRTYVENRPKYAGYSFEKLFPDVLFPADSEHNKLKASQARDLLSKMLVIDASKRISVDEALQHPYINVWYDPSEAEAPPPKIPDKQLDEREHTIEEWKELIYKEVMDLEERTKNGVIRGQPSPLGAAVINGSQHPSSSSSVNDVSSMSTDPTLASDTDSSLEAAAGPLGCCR

[10] = molecular target: Serine/threonine-protein kinase pim-1 (Homo sapiens, UniProt P11309); type: functional
[11] = molecular target: Tyrosine-protein kinase BTK (Homo sapiens, UniProt Q06187); type: functional
[12] = molecular target: Serine/threonine-protein kinase PAK 4 (Homo sapiens, UniProt O96013); type: functional;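 further: value obtained within a kinome profiling panel in which PAK4 was one of the panel members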
[13] = molecular target: Fibroblast growth factor receptor 1 (Homo sapiens, UniProt P11362); type: functional
[14] = molecular target: Casein kinase I isoform alpha (Homo sapiens, UniProt P48729); type: functional
[15] = molecular target: Tyrosine-protein kinase JAK3 (Homo sapiens, UniProt P52333); type: functional
[16] = molecular target: Serine/threonine-protein kinase TAO1 (Homo sapiens, UniProt Q7L7X3); type: functional
[17] = molecular target: Glycogen synthase kinase-3 alpha (Homo sapiens, UniProt P49840); type: functional;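 further: GSK3A result taken from a broad kinome-wide kinase panel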
[18] = molecular target: Mitogen-activated protein kinase kinase kinase kinase 2 (Homo sapiens, UniProt Q12851); type: functional;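 further: measured as one member of a kinome-wide kinase panel, with MAP4K2 as the panel entry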
[19] = molecular target: Hepatocyte growth factor receptor (Homo sapiens, UniProt P08581); type: functional;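 further: kinase panel profiling across the kinome, with MET as the panel member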
[20] = molecular target: Serine/threonine-protein kinase Chk1 (Homo sapiens, UniProt O14757); type: functional;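 further: measured as one member of a kinome-wide kinase profiling panel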
[21] = molecular target: G protein-coupled receptor kinase 5 (Homo sapiens, UniProt P34947); test: Navigating the Kinome. Panel member name: GPRK5; type: functional
[22] = molecular target: Dual specificity tyrosine-phosphorylation-regulated kinase 1B (Homo sapiens, UniProt Q9Y463); test: Navigating the Kinome. Panel member name: DYRK1B; type: functional
[23] = molecular target: cAMP-dependent protein kinase catalytic subunit PRKX (Homo sapiens, UniProt P51817); type: functional
Chain of cAMP-dependent protein kinase catalytic subunit PRKX (P51817 whole entry): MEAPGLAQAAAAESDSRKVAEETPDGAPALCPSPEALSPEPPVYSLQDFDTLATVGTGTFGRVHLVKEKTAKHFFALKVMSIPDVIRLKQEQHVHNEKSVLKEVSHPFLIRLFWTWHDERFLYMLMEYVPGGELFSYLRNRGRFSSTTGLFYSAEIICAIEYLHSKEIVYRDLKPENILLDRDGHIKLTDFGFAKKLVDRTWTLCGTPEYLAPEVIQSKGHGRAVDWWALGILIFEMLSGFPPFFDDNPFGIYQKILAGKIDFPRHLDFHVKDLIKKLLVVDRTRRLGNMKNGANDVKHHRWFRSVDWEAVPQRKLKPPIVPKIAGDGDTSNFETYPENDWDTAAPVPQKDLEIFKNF

[24] = molecular target: Platelet-derived growth factor receptor alpha (Homo sapiens, UniProt P16234); test: Navigating the Kinome. Panel member name: PDGFRA; type: functional
[25] = molecular target: Aurora kinase B (Homo sapiens, UniProt Q96GD4); type: functional
Chain of Aurora kinase B (Q96GD4 whole entry): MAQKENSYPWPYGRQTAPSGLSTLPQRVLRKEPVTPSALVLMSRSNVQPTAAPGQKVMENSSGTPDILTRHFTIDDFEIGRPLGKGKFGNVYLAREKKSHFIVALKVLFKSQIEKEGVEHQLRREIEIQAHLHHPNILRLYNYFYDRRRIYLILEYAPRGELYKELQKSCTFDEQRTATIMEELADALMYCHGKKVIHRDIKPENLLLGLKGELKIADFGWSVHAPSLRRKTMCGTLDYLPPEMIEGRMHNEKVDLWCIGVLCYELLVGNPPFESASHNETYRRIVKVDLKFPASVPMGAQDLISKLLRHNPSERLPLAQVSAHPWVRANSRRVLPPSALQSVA

[26] = molecular target: Tyrosine-protein kinase Fyn (Homo sapiens, UniProt P06241); type: functional
[27] = molecular target: Serine/threonine-protein kinase Nek2 (Homo sapiens, UniProt P51955); type: functional
[28] = molecular target: Cyclin-dependent kinase 8 (Homo sapiens, UniProt P49336); test: Navigating the Kinome. Panel member name: CDK8; type: functional
[29] = molecular target: Cyclin-dependent kinase 7 (Homo sapiens, UniProt P50613); type: functional;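 further: value comes from a kinome-wide kinase profiling panel in which CDK7 is one member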
Chain of Cyclin-dependent kinase 7 (P50613 whole entry): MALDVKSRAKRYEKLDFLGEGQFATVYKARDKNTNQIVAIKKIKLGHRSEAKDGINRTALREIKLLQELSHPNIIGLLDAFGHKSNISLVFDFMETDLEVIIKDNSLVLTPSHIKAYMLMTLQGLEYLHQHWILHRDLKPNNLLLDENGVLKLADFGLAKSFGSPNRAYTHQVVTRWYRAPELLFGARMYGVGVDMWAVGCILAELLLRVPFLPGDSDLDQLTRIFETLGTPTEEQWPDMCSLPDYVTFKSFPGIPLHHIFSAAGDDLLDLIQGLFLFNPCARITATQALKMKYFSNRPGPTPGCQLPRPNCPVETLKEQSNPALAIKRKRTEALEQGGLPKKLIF

[30] = molecular target: Vascular endothelial growth factor receptor 1 (Homo sapiens, UniProt P17948); type: functional;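 further: measured within a kinome-wide profiling panel, FLT1 as the panel member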
[31] = molecular target: Dual specificity protein kinase CLK4 (Homo sapiens, UniProt Q9HAZ1); type: functional
[32] = molecular target: Mitogen-activated protein kinase kinase kinase kinase 4 (Homo sapiens, UniProt O95819); type: functional
[33] = molecular target: Dual specificity tyrosine-phosphorylation-regulated kinase 1A (Homo sapiens, UniProt Q13627); type: functional;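 further: measured against DYRK1A as one member of a broad kinome profiling panel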
[34] = molecular target: Calcium/calmodulin-dependent protein kinase type II subunit alpha (Homo sapiens, UniProt Q9UQM7); test: Navigating the Kinome. Panel member name: CAMK2A; type: functional
[35] = molecular target: Leukocyte tyrosine kinase receptor (Homo sapiens, UniProt P29376); test: Navigating the Kinome. Panel member name: LTK; type: functional
Chain of Leukocyte tyrosine kinase receptor (P29376 whole entry): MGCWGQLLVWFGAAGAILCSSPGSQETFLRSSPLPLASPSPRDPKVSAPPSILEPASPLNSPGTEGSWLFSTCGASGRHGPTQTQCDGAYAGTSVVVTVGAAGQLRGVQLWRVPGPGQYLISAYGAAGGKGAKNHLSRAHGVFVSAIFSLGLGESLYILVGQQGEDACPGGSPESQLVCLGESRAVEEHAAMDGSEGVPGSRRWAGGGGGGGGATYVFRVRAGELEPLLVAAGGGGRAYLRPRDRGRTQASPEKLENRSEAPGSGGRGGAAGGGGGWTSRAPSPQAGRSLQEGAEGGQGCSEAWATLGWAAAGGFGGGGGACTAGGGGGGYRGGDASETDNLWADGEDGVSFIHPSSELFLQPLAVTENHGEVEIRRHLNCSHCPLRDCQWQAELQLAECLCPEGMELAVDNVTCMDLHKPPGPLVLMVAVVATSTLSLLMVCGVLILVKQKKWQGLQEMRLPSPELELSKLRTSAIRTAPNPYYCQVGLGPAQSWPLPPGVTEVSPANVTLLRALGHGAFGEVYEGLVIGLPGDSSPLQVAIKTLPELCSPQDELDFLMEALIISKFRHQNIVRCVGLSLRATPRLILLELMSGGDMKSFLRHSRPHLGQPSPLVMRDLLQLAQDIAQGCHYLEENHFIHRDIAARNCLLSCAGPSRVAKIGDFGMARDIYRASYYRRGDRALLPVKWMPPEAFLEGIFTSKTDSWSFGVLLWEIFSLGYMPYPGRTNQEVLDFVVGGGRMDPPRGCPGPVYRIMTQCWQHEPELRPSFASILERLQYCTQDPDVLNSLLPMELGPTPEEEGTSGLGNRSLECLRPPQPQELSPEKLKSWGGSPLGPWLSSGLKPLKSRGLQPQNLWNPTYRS

[36] = molecular target: Mitogen-activated protein kinase 14 (Homo sapiens, UniProt Q16539); type: functional;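 further: part of a kinome-wide panel, MAPK14 entry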
[37] = molecular target: Heat shock protein HSP 90-alpha (Homo sapiens, UniProt P07900); type: functional, organism-based
[38] = molecular target: T2, High affinity choline transporter 1 (Homo sapiens, UniProt Q9GZV3); test: human choline transporter blockers, potency – cell-based, 5-point CRC, membrane potential dye, dose response (AID 504840); type: functional
T2 sequence (Q9GZV3 whole entry): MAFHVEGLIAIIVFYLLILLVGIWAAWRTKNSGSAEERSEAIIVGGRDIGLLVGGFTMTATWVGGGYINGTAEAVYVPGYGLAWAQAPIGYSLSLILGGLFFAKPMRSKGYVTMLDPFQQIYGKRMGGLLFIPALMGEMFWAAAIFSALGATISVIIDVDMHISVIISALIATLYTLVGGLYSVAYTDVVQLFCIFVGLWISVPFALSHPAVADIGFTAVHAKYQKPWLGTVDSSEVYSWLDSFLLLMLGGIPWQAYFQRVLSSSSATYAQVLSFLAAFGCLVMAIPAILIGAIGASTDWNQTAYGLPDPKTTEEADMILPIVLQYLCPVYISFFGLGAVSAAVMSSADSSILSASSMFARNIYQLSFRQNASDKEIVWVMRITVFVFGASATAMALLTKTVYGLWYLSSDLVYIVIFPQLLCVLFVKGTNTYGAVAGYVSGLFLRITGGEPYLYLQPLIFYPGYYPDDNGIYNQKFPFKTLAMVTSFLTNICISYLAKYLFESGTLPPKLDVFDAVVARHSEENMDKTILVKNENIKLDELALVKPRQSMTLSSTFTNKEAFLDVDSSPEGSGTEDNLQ

[39] = system: H9c2; test: cells; type: functional, cell-based; conditions: Rattus norvegicus, H9c2, Myocardium;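 further: confirmatory concentration-response retest of ultra-high-throughput screening hits for modulation of myocardial damage; cell death induced by hydrogen peroxide oxidative stress; compound pretreatment for 60 min then peroxide exposure for 2 h; potency is for protecting the cells against peroxide damage rather than for killing them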
[40] = molecular target: T2, High affinity choline transporter 1; test: human choline transporter blockers, potency – cell-based, 10-point CRC, membrane potential dye, dose response (AID 588401); type: functional;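 further: membrane potential dye fluorescence of choline-evoked depolarization via CHT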
[41] = molecular target: Cyclin-dependent kinase 19 (Homo sapiens, UniProt Q9BWU1); test: Navigating the Kinome. Panel member name: CDC2L6; type: functional
Chain of Cyclin-dependent kinase 19 (Q9BWU1 whole entry): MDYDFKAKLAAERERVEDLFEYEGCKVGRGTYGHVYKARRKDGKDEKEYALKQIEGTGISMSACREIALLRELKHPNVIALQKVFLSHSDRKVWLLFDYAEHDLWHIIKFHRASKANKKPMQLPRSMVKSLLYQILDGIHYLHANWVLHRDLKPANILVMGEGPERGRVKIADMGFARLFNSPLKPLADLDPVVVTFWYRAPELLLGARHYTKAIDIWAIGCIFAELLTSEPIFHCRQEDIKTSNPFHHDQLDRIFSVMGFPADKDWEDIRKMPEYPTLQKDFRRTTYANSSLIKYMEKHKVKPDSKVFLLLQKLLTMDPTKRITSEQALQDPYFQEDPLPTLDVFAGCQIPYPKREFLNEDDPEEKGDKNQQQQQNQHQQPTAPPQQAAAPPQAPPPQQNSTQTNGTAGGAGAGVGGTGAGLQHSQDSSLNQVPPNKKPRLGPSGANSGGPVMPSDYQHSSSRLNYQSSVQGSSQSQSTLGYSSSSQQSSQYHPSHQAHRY

With O=C(Cc1ccccc1)c1ccccn1 the EC50 [1] was 8.6 µM (active) and the EC50 [2] was > 20 µM (inactive).

With Cc1cc(NC(=O)C2CC2)sc1C(=O)Nc1ccc2[nH]c(-c3cc(F)ccc3F)nc2c1 the IC50 [3] was 42.4 µM (active).

In the case of CCN1c2cc(N)ccc2-c2ccc(N)cc2C1(O)c1ccccc1 (configuration not stated), the Ki [4] is reported as > 6.31 µM (inactive), the Ki [5] is reported as 3.98 µM (active) and the Ki [6] is reported as > 6.31 µM (inactive). The Ki [7] was > 5.01 µM (inactive), the Ki [8] was > 3.98 µM (inactive) and the Ki [9] was > 5.01 µM (inactive). The Ki [10] was > 6.31 µM (inactive), the Ki [11] was 3.98 µM (active) and the Ki [12] was > 5.01 µM (inactive). For the same molecule, the Ki [13] was > 3.98 µM (inactive), the Ki [14] was > 3.98 µM (inactive) and the Ki [15] was 3.16 µM (active). For the same molecule, the Ki [16] was 3.16 µM (active), the Ki [17] was > 3.98 µM (inactive) and the Ki [18] was 2 µM (active). The Ki [19] was 2.51 µM (active), the Ki [20] was 2 µM (active) and the Ki [21] was > 3.98 µM (inactive). The Ki [22] was 2.51 µM (active), the Ki [23] was 2 µM (active) and the Ki [24] was 1.26 µM (active). The Ki [25] was > 3.98 µM (inactive), the Ki [26] was > 6.31 µM (inactive) and the Ki [27] was 2 µM (active). For the same molecule, the Ki [28] was > 3.98 µM (inactive), the Ki [29] was > 3.98 µM (inactive) and the Ki [30] was 3.16 µM (active). The Ki [31] was 0.398 µM (active), the Ki [32] was 3.16 µM (active) and the Ki [33] was 0.794 µM (active). For the same molecule, the Ki [34] was > 3.98 µM (inactive), the Ki [35] was 2 µM (active) and the Ki [36] was > 3.98 µM (inactive).

Oc1c(Br)cc(Br)cc1/C=N/Cc1ccccc1 was tested, and the AC50 [37] was 5.31 µM (active), the IC50 [38] was 9.73 µM (active) and the IC50 [39] was > 79 µM (inactive). The IC50 [40] was 3.16 µM (active).

Cn1cc(Nc2ncc(Br)c(Nc3ccccc3S(C)(=O)=O)n2)cn1 was tested, and the Ki [4] was 2.51 µM (active) and the Ki [41] was > 100 µM (inactive).
